From patent US20100184674A1, “PROADRENOMEDULLIN ALONE OR IN COMBINATION WITH BIG GASTRIN I AS A THERAPEUTIC AGENT” (priority 2007, published 2010)
Where no end group is shown, it is not given here. [ ]: non-standard residue; d: D form. pGlu = O=C1CC[C@@H](C(=O)O)N1

Test system: drug-resistant Mycobacterium tuberculosis
Type: cell-based
Details: 10 micrograms per ml; seven days; strain resistant against PAS, streptomycin and isoniazid

Ala-Arg-Leu-Asp-Val-Ala-Ser-Glu-Phe-Arg-Lys-Lys-Trp-Asn-Lys-Trp-Ala-Leu-Ser-Arg-NH2 (ARLDVASEFRKKWNKWALSR-NH2) [Peptide 1]
inhibition of the growth of Mycobacterium tuberculosis: 100%

Pyr-Leu-Gly-Pro-Gln-Gly-Pro-Pro-His-Leu-Val-Ala-Asp-Pro-Ser-Lys-Lys-Gln-Gly-Pro-Trp-Leu-Glu-Glu-Glu-Glu-Glu-Ala-Tyr-Gly-Trp-Met-Asp-Phe-NH2 ([pGlu]LGPQGPPHLVADPSKKQGPWLEEEEEAYGWMDF-NH2; SMILES CSCC[C@H](NC(=O)[C@H](Cc1c[nH]c2ccccc12)NC(=O)CNC(=O)[C@H](Cc1ccc(O)cc1)NC(=O)[C@H](C)NC(=O)[C@H](CCC(=O)O)NC(=O)[C@H](CCC(=O)O)NC(=O)[C@H](CCC(=O)O)NC(=O)[C@H](CCC(=O)O)NC(=O)[C@H](CCC(=O)O)NC(=O)[C@H](CC(C)C)NC(=O)[C@H](Cc1c[nH]c2ccccc12)NC(=O)[C@@H]1CCCN1C(=O)CNC(=O)[C@H](CCC(N)=O)NC(=O)[C@H](CCCCN)NC(=O)[C@H](CCCCN)NC(=O)[C@H](CO)NC(=O)[C@@H]1CCCN1C(=O)[C@H](CC(=O)O)NC(=O)[C@H](C)NC(=O)[C@@H](NC(=O)[C@H](CC(C)C)NC(=O)[C@H](Cc1c[nH]cn1)NC(=O)[C@@H]1CCCN1C(=O)[C@@H]1CCCN1C(=O)CNC(=O)[C@H](CCC(N)=O)NC(=O)[C@@H]1CCCN1C(=O)CNC(=O)[C@H](CC(C)C)NC(=O)[C@@H]1CCC(=O)N1)C(C)C)C(=O)N[C@@H](CC(=O)O)C(=O)N[C@@H](Cc1ccccc1)C(N)=O) [Peptide 2]
inhibition of the growth of Mycobacterium tuberculosis: 100%
